The source of these data is patent US10251860B2, “Compounds for bone healing” (University of Pittsburgh—Of the Commonwealth System of …, priority 2015, dated 2019).

SMILES strings stand for the structures. Entries after “also recorded” stand apart in the source; their conditions may differ.

The test concerns fibrotic phase associated RNA (TGF-β, TLR4, TLR7), bromodomain transcripts. Briefly: RT-PCR of irradiation induced gene transcripts in lung. The conditions noted are these: 20 Gy thoracic irradiation, MMS350 in drinking water. The class given is in vivo, mouse. How it is done: To isolate different cellular compartments of the lung, mice were sacrificed and the pulmonary cavity was opened, and lungs perfused by injecting 5 ml of phosphate-buffered saline (PBS) into the right ventricle of the heart. To isolate pulmonary endothelial cells, the lungs were filled with 1 ml of dispase (39.65 mg/ml), allowed to collapse, and then expanded with 0.5 ml of a 1% low-melt agarose, which had been stored at 45° C. in a water bath. The lungs were immediately covered with ice and incubated for 2 minutes. […] The cells were analyzed by flow cytometry with PECAM+ endothelial cells and PECAM− and CD45− cells alveolar cells isolated.
RNA was extracted from mouse lung or purified cell populations using the TRIzol reagent (Invitrogen, Carlsbad, Calif.) following the manufacturer's instructions, quantified using a spectrophotometer, and stored at −80° C. […]

For the compound `CC1(C[S+]([O-])CC2(C)COC2)COC1` [Compound 3, 3,3′-Sulfinylbis(methylene)bis(3-methyloxetane)], the bromodomain transcripts result is given as “little effect on bromodomain transcripts” and the “expression of fibrosis phase mRNA” value was “decreased expression of fibrosis phase mRNA expression; also recorded: downregulation of transcription of mRNA associated with the late pulmonary fibrotic reaction”.
